ChEMBL document CHEMBL4020737, “Synthesis and cytotoxic activity of new artemisinin hybrid molecules against human leukemia cells” (Bioorg Med Chem, 2017)
Active and inactive are the calls of the source. The calls are words filed in the database; no cut-off is given here.

Key:
CCRF-CEM = test: Cytotoxicity against human CCRF-CEM cells assessed as reduction in cell viability after 72 hrs by resazurin reduction assay; format: functional, cell-based
ADR5000 cell line [1] = test: Cytotoxicity against human CEM/ADR5000 cells assessed as reduction in cell viability after 72 hrs by resazurin reduction assay; format: functional, cell-based; conditions: ADR5000, 72 h
[2] = Resistance index, ratio of IC50 for human CEM/ADR5000 cells to IC50 for human CCRF-CEM cells; format: functional
ADR5000 cell line [3] = test: Cytotoxicity against human CEM/ADR5000 cells assessed as reduction in cell viability at 400 uM after 72 hrs by resazurin reduction assay; format: functional, cell-based

SMILES | IC50 (CCRF-CEM) | IC50 (ADR5000 cell line [1]) | Ratio IC50 [2] | Activity (ADR5000 cell line [3])
COC(=O)CC[C@@H](C)[C@H]1CC[C@H]2[C@@H]3[C@H](OC(C)=O)C[C@@H]4C[C@@H](NC(=O)C[C@H]5O[C@@H]6O[C@@]7(C)CC[C@H]8[C@H](C)CC[C@@H]([C@H]5C)[C@@]68OO7)CC[C@]4(C)[C@H]3C[C@H](OC(C)=O)[C@]12C | 49 nM | 560 nM | 11.4 | 
COC(=O)CC[C@@H](C)[C@H]1CC[C@H]2[C@@H]3[C@H](OC(C)=O)C[C@@H]4C[C@H](OC(=O)CCC(=O)O[C@@H]5O[C@@H]6O[C@@]7(C)CC[C@H]8[C@H](C)CC[C@@H]([C@H]5C)[C@@]68OO7)CC[C@]4(C)[C@H]3C[C@H](OC(C)=O)[C@]12C | 35 nM | 626 nM | 17.9 | 
COC(=O)CC[C@@H](C)[C@H]1CC[C@H]2[C@@H]3[C@H](OC(C)=O)C[C@@H]4C[C@@H](OC(=O)C[C@H]5O[C@@H]6O[C@@]7(C)CC[C@H]8[C@H](C)CC[C@@H]([C@H]5C)[C@@]68OO7)CC[C@]4(C)[C@H]3C[C@H](OC(C)=O)[C@]12C | 28 nM | 1290 nM | 46.1 | 
C[C@H]1[C@@H](CCCO)O[C@@H]2O[C@@]3(C)CC[C@H]4[C@H](C)CC[C@@H]1[C@@]24OO3 |  |  |  | inactive
COC(=O)CC[C@@H](C)[C@H]1CC[C@H]2[C@@H]3[C@H](OC(C)=O)C[C@@H]4C[C@H](OC(=O)C[C@H]5O[C@@H]6O[C@@]7(C)CC[C@H]8[C@H](C)CC[C@@H]([C@H]5C)[C@@]68OO7)CC[C@]4(C)[C@H]3C[C@H](OC(C)=O)[C@]12C | 30 nM | 1250 nM | 41.8 | 
COc1cccc2c1C(=O)c1c(O)c3c(c(O)c1C2=O)C[C@@](O)(C(=O)CO)C[C@@H]3O[C@H]1C[C@H](N)[C@H](O)[C@H](C)O1 [DOXORUBICIN] |  |  | 536.67 | 
COC(=O)CC[C@@H](C)[C@H]1CC[C@H]2[C@@H]3[C@H](OC(C)=O)C[C@@H]4C[C@H](NC(=O)CCC(=O)O[C@@H]5O[C@@H]6O[C@@]7(C)CC[C@H]8[C@H](C)CC[C@@H]([C@H]5C)[C@@]68OO7)CC[C@]4(C)[C@H]3C[C@H](OC(C)=O)[C@]12C | 36 nM | 655 nM | 18.2 | 
CC(=O)O[C@H]1C[C@H]2[C@@H]([C@H](OC(C)=O)C[C@@H]3CC(=O)CC[C@@]32C)[C@@H]2CC[C@H]([C@H](C)CCC(=O)OCCC[C@H]3O[C@@H]4O[C@@]5(C)CC[C@H]6[C@H](C)CC[C@@H]([C@H]3C)[C@@]46OO5)[C@@]12C | 192 nM | 7160 nM | 37.3 | 
COC(=O)CC[C@@H](C)[C@H]1CC[C@H]2[C@@H]3[C@H](OC(C)=O)C[C@@H]4C[C@@H](NC(=O)CCC(=O)O[C@@H]5O[C@@H]6O[C@@]7(C)CC[C@H]8[C@H](C)CC[C@@H]([C@H]5C)[C@@]68OO7)CC[C@]4(C)[C@H]3C[C@H](OC(C)=O)[C@]12C | 136 nM | 779 nM | 5.7 | 
COC(=O)CC[C@@H](C)[C@H]1CC[C@H]2[C@@H]3[C@H](OC(C)=O)C[C@@H]4C[C@H](NC(=O)C[C@H]5O[C@@H]6O[C@@]7(C)CC[C@H]8[C@H](C)CC[C@@H]([C@H]5C)[C@@]68OO7)CC[C@]4(C)[C@H]3C[C@H](OC(C)=O)[C@]12C | 19 nM | 345 nM | 18.2 | 
COC(=O)CC[C@@H](C)[C@H]1CC[C@H]2[C@@H]3[C@H](OC(C)=O)C[C@@H]4C[C@@H](OC(=O)CCC(=O)O[C@@H]5O[C@@H]6O[C@@]7(C)CC[C@H]8[C@H](C)CC[C@@H]([C@H]5C)[C@@]68OO7)CC[C@]4(C)[C@H]3C[C@H](OC(C)=O)[C@]12C | 65 nM | 1180 nM | 18.1 | 
